Test results published in ChEMBL document CHEMBL4627395, “Cytotoxic Heptaketides from the Endolichenic Fungus Ulospora bilgramii” (J Nat Prod, 2020).
Where a name gives a salt, the structure may show the parent alone. Calls of active or inactive are those of the source. The calls are words filed in the database; no cut-off is given here.

What was measured:
A549 [1] = test: Cytotoxicity against human A549 cells incubated for 48 hrs by MTT assay; assay type: functional, cell-based; details: A549, 48 h
MCF7 = test: Cytotoxicity against human MCF7 cells incubated for 48 hrs by MTT assay; assay type: functional, cell-based; details: MCF7, 48 h
KB = test: Cytotoxicity against human KB cells incubated for 48 hrs by MTT assay; assay type: functional, cell-based
A549 [2] = test: Induction of cell cycle arrest in human A549 cells assessed as accumulation at G0/G1 phase incubated for 24 hrs by flow cytometry; assay type: functional, cell-based
A549 [3] = test: Induction of cell cycle arrest in human A549 cells assessed as accumulation at G0/G1 phase at 13.6 uM incubated for 24 hrs by flow cytometry (reference value: 55.79%); assay type: functional
A549 [4] = test: Induction of cell cycle arrest in human A549 cells assessed as accumulation at S phase at 13.6 uM incubated for 24 hrs by flow cytometry (reference value: 33.65%); assay type: functional
A549 [5] = test: Induction of cell cycle arrest in human A549 cells assessed as accumulation at G2/M phase at 13.6 uM incubated for 24 hrs by flow cytometry (reference value: 10.38%); assay type: functional
A549 [6] = test: Induction of cell cycle arrest in human A549 cells assessed as accumulation at G0/G1 phase at 1.25 uM incubated for 24 hrs by flow cytometry (reference value: 55.79%); assay type: functional
A549 [7] = test: Induction of cell cycle arrest in human A549 cells assessed as accumulation at S phase at 1.25 uM incubated for 24 hrs by flow cytometry (reference value: 33.65%); assay type: functional
A549 [8] = test: Induction of cell cycle arrest in human A549 cells assessed as accumulation at G2/M phase at 1.25 uM incubated for 24 hrs by flow cytometry (reference value: 10.38%); assay type: functional
A549 [9] = test: Induction of cell cycle arrest in human A549 cells assessed as accumulation at G0/G1 phase at 2.5 uM incubated for 24 hrs by flow cytometry (reference value: 55.79%); assay type: functional
A549 [10] = test: Induction of cell cycle arrest in human A549 cells assessed as accumulation at S phase at 2.5 uM incubated for 24 hrs by flow cytometry (reference value: 33.65%); assay type: functional
A549 [11] = test: Induction of cell cycle arrest in human A549 cells assessed as accumulation at G2/M phase at 2.5 uM incubated for 24 hrs by flow cytometry (reference value: 10.38%); assay type: functional
A549 [12] = test: Induction of cell cycle arrest in human A549 cells assessed as accumulation at G0/G1 phase at 5 uM incubated for 24 hrs by flow cytometry (reference value: 55.79%); assay type: functional
A549 [13] = test: Induction of cell cycle arrest in human A549 cells assessed as accumulation at S phase at 5 uM incubated for 24 hrs by flow cytometry (reference value: 33.65%); assay type: functional
A549 [14] = test: Induction of cell cycle arrest in human A549 cells assessed as accumulation at G2/M phase at 5 uM incubated for 24 hrs by flow cytometry (reference value: 10.38%); assay type: functional
A549 [15] = test: induction of morphological changes in human A549 cells assessed as cell shrinkage at 1.25 to 5 uM incubated for 24 hrs by DAPI-staining based microscopic method; assay type: functional
A549 [16] = test: induction of morphological changes in human A549 cells assessed as appearance of apoptotic bodies at 1.25 to 5 uM incubated for 24 hrs by DAPI-staining based microscopic method; assay type: functional, cell-based
A549 [17] = test: Induction of apoptosis in human A549 cells after 24 hrs by Annexin-V-FITC/propidium iodide staining based flow cytometric method; assay type: functional, cell-based
A549 [18] = test: Induction of apoptosis in human A549 cells assessed as early apoptotic cells at 13.6 uM after 24 hrs by Annexin-V-FITC/propidium iodide staining based flow cytometric method (reference value: 0.56%); assay type: functional
A549 [19] = test: Induction of apoptosis in human A549 cells assessed as late apoptotic cells at 13.6 uM after 24 hrs by Annexin-V-FITC/propidium iodide staining based flow cytometric method (reference value: 1.40%); assay type: functional
A549 [20] = test: Induction of apoptosis in human A549 cells assessed as necrotic cells at 13.6 uM after 24 hrs by Annexin-V-FITC/propidium iodide staining based flow cytometric method (reference value: 1.12%); assay type: functional
A549 [21] = test: Induction of apoptosis in human A549 cells assessed as early apoptotic cells at 1.25 uM after 24 hrs by Annexin-V-FITC/propidium iodide staining based flow cytometric method (reference value: 0.56%); assay type: functional
A549 [22] = test: Induction of apoptosis in human A549 cells assessed as late apoptotic cells at 1.25 uM after 24 hrs by Annexin-V-FITC/propidium iodide staining based flow cytometric method (reference value: 1.40%); assay type: functional
A549 [23] = test: Induction of apoptosis in human A549 cells assessed as necrotic cells at 1.25 uM after 24 hrs by Annexin-V-FITC/propidium iodide staining based flow cytometric method (reference value: 1.12%); assay type: functional
A549 [24] = test: Induction of apoptosis in human A549 cells assessed as early apoptotic cells at 2.5 uM after 24 hrs by Annexin-V-FITC/propidium iodide staining based flow cytometric method (reference value: 0.56%); assay type: functional
A549 [25] = test: Induction of apoptosis in human A549 cells assessed as late apoptotic cells at 2.5 uM after 24 hrs by Annexin-V-FITC/propidium iodide staining based flow cytometric method (reference value: 1.40%); assay type: functional
A549 [26] = test: Induction of apoptosis in human A549 cells assessed as necrotic cells at 2.5 uM after 24 hrs by Annexin-V-FITC/propidium iodide staining based flow cytometric method (reference value: 1.12%); assay type: functional
A549 [27] = test: Induction of apoptosis in human A549 cells assessed as early apoptotic cells at 5 uM after 24 hrs by Annexin-V-FITC/propidium iodide staining based flow cytometric method (reference value: 0.56%); assay type: functional
A549 [28] = test: Induction of apoptosis in human A549 cells assessed as late apoptotic cells at 5 uM after 24 hrs by Annexin-V-FITC/propidium iodide staining based flow cytometric method (reference value: 1.40%); assay type: functional
A549 [29] = test: Induction of apoptosis in human A549 cells assessed as necrotic cells at 5 uM after 24 hrs by Annexin-V-FITC/propidium iodide staining based flow cytometric method (reference value: 1.12%); assay type: functional
A549 [30] = test: Induction of ROS generation in human A549 cells incubated for 24 hrs by DCFH-DA staining-based flow cytometric analysis relative to control; assay type: functional, cell-based
A549 [31] = test: Induction of ROS generation in human A549 cells assessed as increase in fluorescence intensity at 5 uM incubated for 24 hrs by DCFH-DA staining-based flow cytometric analysis relative to control; assay type: functional
[32] = target: DNA topoisomerase 2-alpha (Homo sapiens) (UniProt P11388); test: Inhibition of human topoisomerase-2alpha expressed in baculovirus infected insect cells assessed as reduction in pBR322 DNA relaxation measured after 30 mins by ethidium bromide staining based agarose gel electrophoresis method relative to control
A549 [33] = test: Induction of DNA damage in human A549 cells assessed as gammaH2AX accumulation incubated for 24 hrs by DAPI staining based Immunofluorescence method; assay type: functional, cell-based

DNA topoisomerase 2-alpha (Homo sapiens), sequence (P11388 whole entry): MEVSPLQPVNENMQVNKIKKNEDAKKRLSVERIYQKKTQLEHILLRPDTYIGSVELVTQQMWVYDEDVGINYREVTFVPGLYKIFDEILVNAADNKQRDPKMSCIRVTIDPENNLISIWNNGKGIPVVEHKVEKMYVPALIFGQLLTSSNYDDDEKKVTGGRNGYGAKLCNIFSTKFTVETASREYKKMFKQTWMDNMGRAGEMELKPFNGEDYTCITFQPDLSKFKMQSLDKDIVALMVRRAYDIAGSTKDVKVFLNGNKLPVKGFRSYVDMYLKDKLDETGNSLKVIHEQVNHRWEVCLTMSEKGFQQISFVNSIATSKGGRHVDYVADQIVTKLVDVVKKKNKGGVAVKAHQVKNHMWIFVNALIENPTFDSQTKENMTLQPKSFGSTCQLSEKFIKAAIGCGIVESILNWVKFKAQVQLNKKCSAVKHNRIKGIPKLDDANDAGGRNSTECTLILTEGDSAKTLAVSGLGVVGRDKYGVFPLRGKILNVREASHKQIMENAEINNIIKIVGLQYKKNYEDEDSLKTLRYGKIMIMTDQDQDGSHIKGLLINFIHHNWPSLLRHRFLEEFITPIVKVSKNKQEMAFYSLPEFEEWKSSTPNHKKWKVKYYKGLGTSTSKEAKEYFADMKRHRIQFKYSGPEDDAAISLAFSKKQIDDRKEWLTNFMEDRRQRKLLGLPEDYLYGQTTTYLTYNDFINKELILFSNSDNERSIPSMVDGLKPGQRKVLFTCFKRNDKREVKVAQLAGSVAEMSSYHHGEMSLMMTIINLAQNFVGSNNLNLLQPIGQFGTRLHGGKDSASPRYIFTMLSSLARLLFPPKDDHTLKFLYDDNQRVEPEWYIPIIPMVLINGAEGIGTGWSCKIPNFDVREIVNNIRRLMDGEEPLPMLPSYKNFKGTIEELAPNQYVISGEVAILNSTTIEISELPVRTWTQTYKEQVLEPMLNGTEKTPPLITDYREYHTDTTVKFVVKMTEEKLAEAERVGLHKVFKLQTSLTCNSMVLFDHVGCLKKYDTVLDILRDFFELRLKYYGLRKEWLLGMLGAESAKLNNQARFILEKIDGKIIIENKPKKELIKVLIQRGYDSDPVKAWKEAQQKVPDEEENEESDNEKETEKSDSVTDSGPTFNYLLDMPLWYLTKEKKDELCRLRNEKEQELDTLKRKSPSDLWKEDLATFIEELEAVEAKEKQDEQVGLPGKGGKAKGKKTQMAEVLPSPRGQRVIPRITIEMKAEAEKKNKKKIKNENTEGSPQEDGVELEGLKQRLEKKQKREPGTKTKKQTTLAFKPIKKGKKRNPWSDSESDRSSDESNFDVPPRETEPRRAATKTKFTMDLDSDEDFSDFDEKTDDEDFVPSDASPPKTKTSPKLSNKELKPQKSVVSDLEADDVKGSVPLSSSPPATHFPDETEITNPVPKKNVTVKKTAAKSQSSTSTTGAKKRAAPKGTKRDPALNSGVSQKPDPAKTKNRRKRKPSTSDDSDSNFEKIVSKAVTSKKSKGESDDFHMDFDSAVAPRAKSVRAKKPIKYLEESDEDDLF

SMILES: COc1cc(O)c2c(c1)C(=O)C1=C(C2=O)C(OC)OC(C)=C1 (configuration not stated) [ASCOMYCONE A]
- IC50 (A549 [1]): > 40 µM
- IC50 (MCF7): > 40 µM
- IC50 (KB): > 40 µM

SMILES: COc1cc(O)c2c(c1)[C@@H](O)[C@@H]1C[C@@H](C)OC[C@H]1C2=O
- IC50 (A549 [1]): > 40 µM
- IC50 (MCF7): > 40 µM
- IC50 (KB): > 40 µM

SMILES: COc1cc(O)c2c(c1)[C@@H](O)[C@H]1C[C@H](C)OC=C1C2=O
- IC50 (A549 [1]): > 40 µM
- IC50 (MCF7): > 40 µM
- IC50 (KB): > 40 µM

SMILES: COc1cc(O)c2c(c1)[C@@H](O)[C@@H]1C[C@H](C)OC[C@H]1C2=O
- IC50 (A549 [1]): > 40 µM
- IC50 (MCF7): > 40 µM
- IC50 (KB): > 40 µM

SMILES: COc1cc(O)c2c(c1)C(=O)C(CC(C)=O)=C(C)C2=O
- IC50 (A549 [1]): > 40 µM
- IC50 (MCF7): > 40 µM
- IC50 (KB): > 40 µM

SMILES: COc1cc(O)c2c(c1)C(=O)C1=C(C2=O)[C@@](C)(OC)OCC1
- IC50 (A549 [1]): 28.2 µM
- IC50 (MCF7): 11.6 µM
- IC50 (KB): 16.6 µM

SMILES: COC1=CC(=O)[C@H](O)[C@H](C)C12Oc1cccc3cccc(c13)O2
- IC50 (A549 [1]): > 40 µM
- IC50 (MCF7): > 40 µM
- IC50 (KB): > 40 µM

SMILES: COc1cc(O)c2c(c1)C(=O)C1=C(C2=O)[C@H](OC[C@@H]2C(=O)CC[C@@H]2C)OC(C)=C1
- IC50 (A549 [1]): 1.3 µM
- IC50 (MCF7): 1.3 µM
- IC50 (KB): 3 µM
- Activity (A549 [2]): Dose-dependent effect
- Activity (A549 [3]): 30.93%
- Activity (A549 [4]): 24.26%
- Activity (A549 [5]): 44.81%
- Activity (A549 [6]): 59.51%
- Activity (A549 [7]): 33.31%
- Activity (A549 [8]): 7.18%
- Activity (A549 [9]): 66.37%
- Activity (A549 [10]): 30.07%
- Activity (A549 [11]): 3.56%
- Activity (A549 [12]): 69.15%
- Activity (A549 [13]): 29.74%
- Activity (A549 [14]): 1.11%
- Activity (A549 [15]): Active
- Activity (A549 [16]): Active
- Activity (A549 [17]): Dose-dependent effect
- Activity (A549 [18]): 6.79%
- Activity (A549 [19]): 5.02%
- Activity (A549 [20]): 2.15%
- Activity (A549 [21]): 0.98%
- Activity (A549 [22]): 1.14%
- Activity (A549 [23]): 0.73%
- Activity (A549 [24]): 0.87%
- Activity (A549 [25]): 2.69%
- Activity (A549 [26]): 1.3%
- Activity (A549 [27]): 1.8%
- Activity (A549 [28]): 10.75%
- Activity (A549 [29]): 7.75%
- Activity (A549 [30]): Dose-dependent effect
- fold change (FC) (A549 [31]): 5
- inhibition [32]: Active
- Activity (A549 [33]): Dose-dependent effect

SMILES: COc1cccc2c1C(=O)c1c(O)c3c(c(O)c1C2=O)C[C@@](O)(C(=O)CO)C[C@@H]3O[C@H]1C[C@H](N)[C@H](O)[C@H](C)O1 [DOXORUBICIN HYDROCHLORIDE]
- IC50 (A549 [1]): 5 µM
- IC50 (MCF7): 2.5 µM
- IC50 (KB): 2.2 µM

SMILES: COc1cc(O)c2c(c1)[C@H](O)[C@@H]1C[C@H](C)OC[C@H]1C2=O
- IC50 (A549 [1]): > 40 µM
- IC50 (MCF7): > 40 µM
- IC50 (KB): > 40 µM
